Measured values as given in patent publication US20230372481A1 (priority 2020, published 2023).
“And” between values parts separate entries of the source, which are not always exact repeats. Equal values may be shown once. Read-outs that look alike come from different tables or passages of the source.

How the values were obtained:
[1] = tested on: CD45RA− memory T cells; test: Phenotypic characterization of CD45RA− memory T cells in the presence of IL-15 (Table 11); format: cell-based, human
[2] = tested on: CD45RA− memory T cells;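 also: memory T cells from a convalescent donor cultured overnight or 72 h, surface markers read by flow cytometry, fold change versus a parallel culture lacking IL15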
Experimental: CD45RA− memory T cells from the convalescent donor where thawed and incubated in Tex MACs media TexMACS Medium (Miltenyi Biotec, Germany) supplemented with 5% AB serum (Sigma-Aldrich, Saint Louis, Missouri, USA) plus 50 ng/ml of IL15 o/n and for 72 hours. After that time the cells were harvested and the phenotypic assay was performed. The same culture without IL15 was run in parallel as a control.
Cell surface staining was performed for 20 minutes at 4 degrees with the following fluorochrome conjugated antibodies titrated to their optimal concentrations: 7AAD (BD Horizon), CD45RA FITC (BD Pharmingen), CD3 viogreen (Miltenyi Biotec), CD4 PECy7 (BD Pharmingen), CD8 APC Cy7 (BD Pharmingen), CD27 APC (BD Pharmingen). For the Treg panel CD25 BV421 (BD Horizon), and CD127 PE-CF594 (BD Horizon), was used. For the activation panel HLA-DR BV 421 (BD Pharmingen), CD69 BV421 (Biolegend), CD25 BV421 (BD Horizon), was used. For the exhaustion panel PD1 AF700 (Biolegend), NKG2D BV421 (Biolegend) was used. For the cytokine panel CD103 BV421 (BD Horizon) and CCR7 PE-CF594 (BD Horizon) was used. An average of 200.000 cells was acquired. Cell acquisition was performed using a FACS Canto. The analysis was performed using FlowJo 9.9.6 (FlowJo LLC).

[3] = IL-15 o/n vs control with no cytokine
[4] = IL15 (3 days) 50 ng/ml vs no cytokine
[5] = IL15 (3 days) 50 ng/ml vs no cytokine, listed as IL-15
[6] = IL15 (o.n.) 50 ng/ml vs no cytokine

## IL15: cytokine fundamental for memory T cells that induces the activation, the proliferation and the survival of T cells
[1]; IL-15 72 hours vs control with no cytokine
  Fold increase of activation marker HLA-DR, CD45RA− CD3+ cells: 1.21 fold
[1]; IL-15 o/n
  Fold time change of exhaustion marker NKG2A, CD45RA−CD3+ cells: 0.61 fold
  Fold time change of exhaustion marker PD-1, CD45RA−CD3+ cells: 1.43 fold
[1]; [3]
  Fold increase of activation marker CD25, CD45RA− CD3+ cells: 2.28 fold
  Fold increase of activation marker CD69, CD45RA− CD3+ cells: 3.82 fold
  Fold increase of activation marker HLA-DR, CD45RA− CD3+ cells: 1.11 fold
[2]; [4]
  Fold change increase, % CD45RA−: 1.0 fold
  Fold change increase, CD3+ CCR7: 1 fold and 1.0 fold
  Fold change increase, CD3+ CD25+: 8.5 fold
  Fold change increase, CD3+ CD69 BV421 high: 29.6 fold
  Fold change increase, CD3+ CD103: 1.2 fold
  Fold change increase, CD3+ HLA-DR+: 2.6 fold
  Fold change increase, CD3+ NKG2A+: 1.4 fold
  Fold change increase, CD3+ PD1 AF700: 8.7 fold
  Fold change increase, CD4+ CCR7: 1.0 fold
  Fold change increase, CD4+ CD25+: 8.6 fold
  Fold change increase, CD4+ CD69 BV421 high: 59.8 fold
  Fold change increase, CD4+ CD103: 1.0 fold
  Fold change increase, CD4+ HLA-DR+: 2.4 fold
  Fold change increase, CD4+ NKG2A+: 0.6 fold
  Fold change increase, CD4+ PD1 AF700: 9.1 fold
  Fold change increase, CD8+ CCR7: 1.4 fold
  Fold change increase, CD8+ CD25+: 36.4 fold
  Fold change increase, CD8+ CD69 BV421 high: 5.6 fold
  Fold change increase, CD8+ CD103: 1.4 fold
  Fold change increase, CD8+ HLA-DR+: 1.9 fold
  Fold change increase, CD8+ NKG2A+: 1.2 fold
  Fold change increase, CD8+ PD1 AF700: 6.1 fold
  Fold change increase, CD45RA− % CD3+: 1.0 fold
  Fold change increase, CD45RA− % CD4+: 1.0 fold
  Fold change increase, CD45RA− % CD8+: 1.1 fold
  Fold change increase, CD45RA− CD4+ CD27+ (CM): 1.0 fold
  Fold change increase, CD45RA− CD4+ CD27− (EM): 0.9 fold
  Fold change increase, CD45RA− CD4+ CD127lowCD25+ (Treg): 2.0 fold
  Fold change increase, CD45RA− CD8+ CD27+ (CM): 1.0 fold
  Fold change increase, CD45RA− CD8+ CD27− (EM): 1.0 fold
[2]; [5]
  Fold change increase, CD3+ CCR7: No modification
  Fold change increase, CD3+ CD25+: 8.6 fold
[2]; [6]
  Fold change increase, % CD45RA−: 1.0 fold
  Fold change increase, CD3+ CCR7: 1.0 fold
  Fold change increase, CD3+ CD25+: 1.5 fold
  Fold change increase, CD3+ CD69 BV421 high: 3.2 fold
  Fold change increase, CD3+ CD103: 0.7 fold
  Fold change increase, CD3+ HLA-DR+: 1.2 fold
  Fold change increase, CD3+ NKG2A+: 0.7 fold
  Fold change increase, CD3+ PD1 AF700: 0.7 fold
  Fold change increase, CD4+ CCR7: 1.0 fold
  Fold change increase, CD4+ CD25+: 1.5 fold
  Fold change increase, CD4+ CD69 BV421 high: 2.9 fold
  Fold change increase, CD4+ CD103: 0.7 fold
  Fold change increase, CD4+ HLA-DR+: 1.2 fold
  Fold change increase, CD4+ NKG2A+: 1.2 fold
  Fold change increase, CD4+ PD1 AF700: 0.8 fold
  Fold change increase, CD8+ CCR7: 1.5 fold
  Fold change increase, CD8+ CD25+: 4.4 fold
  Fold change increase, CD8+ CD69 BV421 high: 2.8 fold
  Fold change increase, CD8+ CD103: 0.9 fold
  Fold change increase, CD8+ HLA-DR+: 1.2 fold
  Fold change increase, CD8+ NKG2A+: 0.8 fold
  Fold change increase, CD8+ PD1 AF700: 1.7 fold
  Fold change increase, CD45RA− % CD3+: 1.0 fold
  Fold change increase, CD45RA− % CD4+: 1.0 fold
  Fold change increase, CD45RA− % CD8+: 0.8 fold
  Fold change increase, CD45RA− CD4+ CD27+ (CM): 1.0 fold
  Fold change increase, CD45RA− CD4+ CD27− (EM): 0.9 fold
  Fold change increase, CD45RA− CD4+ CD127lowCD25+ (Treg): 1.3 fold
  Fold change increase, CD45RA− CD8+ CD27+ (CM): 1.1 fold
  Fold change increase, CD45RA− CD8+ CD27− (EM): 0.9 fold
[2]; IL15 (o.n.) 50 ng/ml vs no cytokine, listed as IL-15
  Fold change increase, CD3+ CCR7: No modification
